Reference: US6294674A, “Dibenzofuran sulfonamide matrix metalloproteinase inhibitors” (priority 1999, dated 2001)

Assays:
MMP01 = target: T1, MMP01 (Homo sapiens, UniProt P03956); experiment: Thiopeptolide assay, MMP01; format: biochemical; conditions: Tables 2, 3, 5, 7; read-out: IC50 MMP1
T1 construct: purchased Washington University School of Medicine, St. Louis, Mo
T1 sequence (P03956 100-469): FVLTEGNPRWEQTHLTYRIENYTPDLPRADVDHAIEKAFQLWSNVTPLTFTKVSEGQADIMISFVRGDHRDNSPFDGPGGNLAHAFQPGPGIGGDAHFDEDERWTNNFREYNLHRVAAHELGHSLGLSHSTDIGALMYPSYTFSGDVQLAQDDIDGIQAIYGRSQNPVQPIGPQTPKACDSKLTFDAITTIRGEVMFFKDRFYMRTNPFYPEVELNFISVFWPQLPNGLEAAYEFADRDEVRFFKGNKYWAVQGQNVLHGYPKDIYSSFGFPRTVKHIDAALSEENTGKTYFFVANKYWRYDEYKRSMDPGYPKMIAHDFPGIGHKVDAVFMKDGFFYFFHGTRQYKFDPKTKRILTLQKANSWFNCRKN
Method: (§1) MMP01, MMP07, MMP09, and MMP13 activity was assayed in a method similar to MMP02 and MMP03 (SCD and GCD). MMP01 and MMP09 can be obtained from Washington University School of Medicine, St. Louis, Mo. MMP07 can be obtained in accordance with the known procedure set forth by Ye QZ, Johnson L. L., and Baragi V., "Gene Syntheses and Expression in E. coli for PUMP, a Human Matrix Metalloproteinase" Biochem. and Biophys. […] MMP 13 can be obtained in accordance with the known procedure set forth by Freije J. M. P., et al., "Molecular Cloning and Expression of Collegenase-3, a Novel Human Matrix Metalloproteinase Produced by Breast Carcinomas" J. Bio.
(§2) Hydrolysis of the thiopeptolide substrate Ac-Pro-Leu-Gly-thioester-Leu-Leu-Gly-OEt (Bachem) is used as the primary screen to determine IC50 values for MMP inhibitors. A 100 μL reaction contains 1 mM 5,5'-dithiobis(2-nitrobenzoic acid) (DTNB), 100 μM substrate, 0.1% Brij, enzyme, and inhibitor in the appropriate reaction buffer. Activated full-length enzymes are assayed at 5 nM, Stromelysin Catalytic Domain (SCD) at 10 nM, and Gelatinase A Catalytic Domain (GaCD) at 1 nM. Inhibitors are screened from 100 μM to 1 nM. Full-length enzymes are assayed in 50 mM HEPES, 10 mM CaCl2, pH 7.0; SCD in 50 mM MES, 10 mM CaCl2, pH 6.0; and GaCD in 50 mM MOPS, 10 mM CaCl2, 10 μM ZnCl2, pH 7.0.

MMP07 = target: T2, MMP07 (Homo sapiens, UniProt P09237); experiment: Thiopeptolide assay, MMP07; format: biochemical; conditions: Tables 2, 3, 5, 7; read-out: IC50 MMP-7
T2 construct: made in house; host or cells: Escherichia coli
T2 sequence (P09237 95-267): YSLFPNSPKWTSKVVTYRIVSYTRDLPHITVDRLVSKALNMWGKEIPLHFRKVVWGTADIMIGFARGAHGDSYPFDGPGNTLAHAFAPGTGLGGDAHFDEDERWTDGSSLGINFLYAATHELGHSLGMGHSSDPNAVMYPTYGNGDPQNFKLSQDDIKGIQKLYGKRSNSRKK
Method: as §1, §2

MMP-13CD = experiment: Thiopeptolide assay, MMP-13CD; format: biochemical, human; conditions: Tables 2, 3, 5, 7
Method: IC50 values were determined using a thiopeptolide substrate, Ac-Pro-Leu-Gly-thioester-Leu-Leu-Gly-OEt (Ye Q.-Z., Johnson L. L., Hupe D. J., and Baragi V., "Purification and Characterization of the Human Stromelysin Catalytic Domain Expressed in Escherichia coli," Biochemistry, 1992;31:11231-11235). MMP01, MMP07, MMP09, and MMP13 activity was assayed in a method similar to MMP02 and MMP03 (SCD and GCD). MMP01 and MMP09 can be obtained from Washington University School of Medicine, St. Louis, Mo. MMP07 can be obtained in accordance with the known procedure set forth by Ye QZ, Johnson L. L., and Baragi V., "Gene Syntheses and Expression in E. coli for PUMP, a Human Matrix Metalloproteinase" Biochem. and Biophys. Res. Comm., 1992; 186:143-149. MMP 13 can be obtained in accordance with the known procedure set forth by Freije J. M. P., et al., "Molecular Cloning and Expression of Collegenase-3, a Novel Human Matrix Metalloproteinase Produced by Breast Carcinomas" J. Bio. Chem., 1994;269:16766-6773.
as §2, with “7.0. The change in absorbance at 405 riM is monitored on a ThermoMax microplate reader at room temperature continuously for 20 minutes.” for “7.0.”

[1] = target: gelatinase A catalytic domain (MMP02); experiment: Thiopeptolide assay, gelatinase A catalytic domain (GCD, MMP02); format: biochemical; conditions: Tables 2, 3, 5, 7; read-out: IC50 MMP-2CD
Method: as §2

[2] = target: T3, stromelysin-1 catalytic domain (MMP03) (Homo sapiens, UniProt P08254); experiment: Thiopeptolide assay, stromelysin-1 catalytic domain (SCD, MMP03); format: biochemical; conditions: Tables 2, 3, 5, 7; read-out: IC50 MMP 3CD
T3 construct: SCD (stromelysin-1 catalytic domain); made in house; host or cells: Escherichia coli
T3 sequence (P08254 100-272 limits assumed): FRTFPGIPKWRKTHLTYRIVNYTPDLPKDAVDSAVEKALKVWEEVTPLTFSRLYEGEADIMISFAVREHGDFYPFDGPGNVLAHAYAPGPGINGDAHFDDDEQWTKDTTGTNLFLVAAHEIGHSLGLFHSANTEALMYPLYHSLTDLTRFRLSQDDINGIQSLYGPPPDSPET
Method: as §2

Row | Compound | IC50 (MMP01) [µM] | IC50 (MMP07) [µM] | IC50 (MMP-13CD) [µM] | IC50 [1] [µM] | IC50 [2] [µM]
1 | Cc1ccc(CCC(=O)NCCCCC(NS(=O)(=O)c2ccc3oc4ccccc4c3c2)C(=O)O)cc1 (stereo not shown) [Example A27, 2-(Dibenzofuran-2-sulfonylamino)-6-(3-p-tolyl-propionylamino)-hexanoic acid] | > 100 | > 100 | 5.8 | 1.1 | 7.7
2 | O=C(CCCc1c[nH]c2ccccc12)NCCCCC(NS(=O)(=O)c1ccc2oc3ccccc3c2c1)C(=O)O (stereo not shown) [Example A31, 2-(Dibenzofuran-2-sulfonylamino)-6-(4-1H-indol-3-yl-butyrylamino)-hexanoic acid] | > 100 | > 100 | 12.8 | 3.3 | 6.4
3 | CC(C)CC(C)NC(=O)CCC(NS(=O)(=O)c1ccc2oc3ccccc3c2c1)C(=O)O (stereo not shown) [Example F8, 2-(Dibenzofuran-2-sulfonylamino)-4-(1,3-dimethyl-butylcarbamoyl)-butyric acid] | 61.3 | 7 | 0.2 | 0.1 | 0.4
4 | O=C(CCCc1ccccc1)NCCCCC(NS(=O)(=O)c1ccc2oc3ccccc3c2c1)C(=O)O (stereo not shown) [Example A26, 2-(Dibenzofuran-2-sulfonylamino)-6-(4-phenyl-butyrylamino)-hexanoic acid] | > 100 | > 100 | 5.4 | 1.5 | 4.2
5 | O=C(NCCCCC(NS(=O)(=O)c1ccc2oc3ccccc3c2c1)C(=O)O)NCc1ccccc1 (stereo not shown) [Example B9, 6-(3-Benzyl-ureido)-2-(dibenzofuran-2-sulfonylamino)-hexanoic acid] | > 100 | 70.2 | 4 | 0.8 | 1.4
6 | CCC(Oc1ccccc1)C(=O)NCCCCC(NS(=O)(=O)c1ccc2oc3ccccc3c2c1)C(=O)O (stereo not shown) [Example A6, 2-(Dibenzofuran-2-sulfonylamino)-6-(2-phenoxy-butrylamino)-hexanoic acid] | > 100 | > 100 | 8 | 1.5 | 3.9
7 | O=C(Cc1ccccc1C(F)(F)F)NCCCCC(NS(=O)(=O)c1ccc2oc3ccccc3c2c1)C(=O)O (stereo not shown) [Example A4, 2-(Dibenzofuran-2-sulfonylamino)-6-[2-(2-trifluoromethyl-phenyl)-acetylamino]-hexanoic acid] | > 100 | > 100 | 3.7 | 2.7 | 4.6
8 | O=C(CCC(NS(=O)(=O)c1ccc2oc3ccccc3c2c1)C(=O)O)NCC(c1ccccc1)c1ccccc1 (stereo not shown) [Example F5, 2-(Dibenzofuran-2-sulfonylamino)-4-(2,2-diphenyl-ethylcarbamoyl)-butyric acid] | > 100 | 40.9 | 0.7 | 0.7 | 1
9 | C=CCNC(=O)NCCCCC(NS(=O)(=O)c1ccc2oc3ccccc3c2c1)C(=O)O (stereo not shown) [Example B8, 6-(3-Allyl-ureido)-2-(dibenzofuran-2-sulfonylamino)-hexanoic acid] | > 100 | > 100 | 7.6 | 1.1 | 3
10 | Cn1cccc1CCNC(=O)CCC(NS(=O)(=O)c1ccc2oc3ccccc3c2c1)C(=O)O (stereo not shown) [Example F14, 2-(Dibenzofuran-2-sulfonylamino)-4-[2-(1-methyl-1H-pyrrol-2-yl)-ethylcarbamoyl]-butyric acid] | > 100 | 57.6 | 2.4 | 0.4 | 1.4
11 | CCCc1ccc(NC(=O)CCC(NS(=O)(=O)c2ccc3oc4ccccc4c3c2)C(=O)O)cc1 (stereo not shown) [Example F4, 2-(Dibenzofuran-2-sulfonylamino)-4-(4-propyl-phenylcarbamoyl)-butyric acid] | 93.7 | 42.7 | 2.2 | 0.3 | 0.6
12 | COc1ccc(NC(=O)NCCCCC(NS(=O)(=O)c2ccc3oc4ccccc4c3c2)C(=O)O)cc1 (stereo not shown) [Example B1, 2-(Dibenzofuran-2-sulfonylamino)-6-[3-(4-methoxy-phenyl)-ureido]-hexanoic acid] | > 100 | > 100 | 14.2 | 2.7 | 8.8
13 | O=C(CCC(NS(=O)(=O)c1ccc2oc3ccccc3c2c1)C(=O)O)NCCc1cccs1 (stereo not shown) [Example F11, 2-(Dibenzofuran-2-sulfonylamino)-4-(2-thiophen-2-yl-ethylcarbamoyl)-butyricacid] | > 100 | > 100 | 3.6 | 2.1 | 2.7
14 | O=C(NCCCCC(NS(=O)(=O)c1ccc2oc3ccccc3c2c1)C(=O)O)Nc1ccccc1 (stereo not shown) [Example B10, 2-(Dibenzofuran-2-sulfonylamino)-6-(3-phenyl-ureido)-hexanoic acid] | > 100 | > 100 | 8 | 0.3 | 2.4
15 | O=C(O)C(CCCCNS(=O)(=O)c1ccc(Br)cc1)NS(=O)(=O)c1ccc2oc3ccccc3c2c1 (stereo not shown) [Example D3, 6-(4-Bromo-benzenesulfonylamino)-2-(dibenzofuran-2-sulfonylamino)-hexanoic acid] | > 100 | > 100 | 11.8 | 2.9 | 8.6
16 | O=C(CCC(NS(=O)(=O)c1ccc2oc3ccccc3c2c1)C(=O)O)NC1CC1 (stereo not shown) [Example F6, 4-Cyclopropylcarbamoyl-2-(dibenzofuran-2-sulfonylamino)-butyric acid] | 68.7 | 14.8 | 0.3 | 0.2 | 0.2
17 | O=C(O)C(CCCCNC(=S)NC12CC3CC(CC(C3)C1)C2)NS(=O)(=O)c1ccc2oc3ccccc3c2c1 (stereo not shown) [Example B6, 6-(3-Adamantan-1-yl-thioureido)-2-(dibenzofuran-2-sulfonylamino)-hexanoic acid] | > 100 | > 100 | 4.4 | 3.1 | 9
